Measured values taken from patent publication US5512573A, “Use of phthaloylhydrazide derivatives as anti-hypoxic and defensive agents” (priority 1993, dated 1996).

Columns and labels:
[1] = test system: lymphocytes, macrophages and fibroblasts; conditions: 24-hour in vitro, 0.01 to 0.8 mmols/liter
Description: The cells used as subject matter included lymphocytes, macrophages and fibroblasts. Viability following a 24-hour in vitro exposure with 5-aminophthaloylhydrazide in concentrations of 0.01 to 0.8 mmols/liter was determined by means of protein incorporation and/or synthesis.

[2] = test system: brain ischemia (carotid tying) in mice; assay: Example 4: carotid tying and release in mice; type: in vivo
Description: We performed experiments on 50 mice of the pyramid by tying the carotid under light anesthesia. After 7 minutes, we released the tie and restored the blood circulation in the ischemic area.

[3] = test system: S. typhi TA 100, TA 102, and TA 97; assay: Mutagenicity, Ames' bacterial testing method; conditions: 0.01 and 2 mg/ml; rat liver microsomes
Description: Mutagenicity was measured by means of Ames' bacterial testing method. The tests were performed with strains of S. typhi TA 100, TA 102, and TA 97. The microsome activator method was used whereby rat liver was induced with methylcolanthrene.

male mice = conditions: 40 to 80 mg/kg
Description: To study the pharmacological properties on the central nervous system, doses of 40 to 80 mg per kilogram of body weight were used. The choice of doses was based on safety criteria governing the use of medicines.
The neuropharmacological effects were studied in male mice of undefined strain which had reached sexual maturity. The mice, weighing 18 to 20 g, were given a solution of the drug intraabdominally. The neuropharmacological effects were studied on the basis of changes in the natural orientation reflex, in induced aggressiveness, and in muscle tone. The change in the natural sense of orientation was recorded according to the current method. To study the effect of the drug on induced aggressiveness, the electrical stimulation method (pain caused by electric current) was used.
The change in muscle tone was measured by means of the "pivot pin" method.

## Nc1cccc2c(=O)[nH][nH]c(=O)c12 [5-aminophthaloylhydrazide, 5-amino-2,3-dihydrophthalazine-1,2 dione]
[1]
  toxicity (viability by protein incorporation and/or synthesis): No toxicity was observed for any of the dosage levels tested
Psoriasis patients; 12 to 20 mg/kg daily
  clinical picture of psoriasis: the itching disappeared, the temperature went down and the surface area of the affected zone shrunk
Psoriasis patients; drug plus topical 4% solution in 10% DMSO
  epithelization of the pustules: epithelization of the pustules occurred
physchem
  pKa: 6.3
[2]; 30 mg/kg, p>0.05
  percentage of surviving animals: did not increase
[2]; 100 mg/kg intramuscular
  cases with symptoms of neurological impairment: 3 cases
  effectiveness of intramuscular administration: the intramuscular administration of the drug was not effective
  surviving animals: Six out of 10
[2]; 100 mg/kg intravenous
  cases without symptoms of neurological impairment: 8 cases
  surviving animals: 9 out of 10
[2]; 150 mg/kg
  cases with symptoms of damage to the central nervous system: 2 cases
  surviving animals: 80%
[2]; above 100 mg/kg
  survival rate on further dose increase: did not lead to a reliable increase in the survival rate
[2]; two administrations of 100 mg/kg, 12-hour interval
  surviving animals without symptoms of neurological impairment: 9 animals
[3]
  inhibitory or mutagenic activity: does not posses inhibitory or mutagenic activity
Male mice
  pain threshold: nor did it cause changes in muscle tone or modifications in the pain threshold
Male mice; intraabdominal
  natural orientation reflex: did not suppress the natural orientation reflex
Male mice; pivot pin method
  muscle tone: nor did it cause changes in muscle tone
